{"source": "patent US11260050B2", "about": "“Combination of cotinine plus antioxidant for treatment-resistant depression and correction of astrocytes functional deficit induced by depression and other neuropathological” (UNIVERSIDAD SAN SEBASTIAN, priority 2017, dated 2022)", "system": "restrained mice", "test": "Novel object recognition after chronic restraint stress (Example 2)", "format": "in vivo, C57BL/6 male mice", "settings": "stressed mice, IN cotinine vs vehicle", "description": "Mice between 2-3 months of age after one week of acclimatization were randomly divided into two groups. Stressed mice were subjected to restraint stress. Control (non-restrained) mice were allowed to move freely during this period. After the stress exposure period, mice were divided into three experimental groups: 1) Non-restrained mice treated with vehicle (PBS, pH 7.4) serving as unstressed controls (n=8); 2) Restrained mice (RS) treated with vehicle (n=8); 3), RS mice treated with 24 μl of a cotinine solution (10 mg/ml in PBS, pH 7.4) via intranasal route of administration (n=6). Treatments were administered daily until euthanasia. After two weeks of treatments mice were behaviorally tested and euthanized (FIG. 10)\nIntranasal delivery was performed as previously described (Hanson and Frey, 2007). Mice at 2-3 months of age were hand-restrained, positioned in a supine position, and administered two 12 μl drops of cotinine solution (10 mg/ml in PBS), or PBS alone, into both nares. Mice were given an extra 12 μl treatment drop if the mouse expelled out the solution. Mice were kept in the supine posture for 5 seconds after delivery to facilitate the delivery. […]\nThe NOR test starts with a habituation step that consists in putting each mouse to freely explore an open and empty testing arena (40 cm×40 cm×35 cm) for 10 min. […] The time exploring the objects was recorded during 5 min in both steps. […]", "data": [{"compound": "CN1C(=O)CC[C@H]1c1cccnc1", "note": "[Cotinine, (5S)-1-methyl-5-(3-pyridyl) pyrrolidin-2-one]", "values": [{"measurement": "exploration index for the new object (NOR)", "value": "increase in the exploration index when compared to vehicle-treated stressed mice but the difference did not reach statistical significance"}, {"measurement": "number of entries to the novel object area (NOR)", "setting": "p<0.05", "value": "significantly higher number of entries to the novel object area"}]}]}
